Measurements from patent US9511059B2, “Antiviral compounds” (priority 2013, dated 2016).

Columns and labels:
Experiment in all cases: microbe, parasite or virus in culture
[1] = system: pseudotyped VSV G particles (VSVpp); format: cell-based; conditions: Vesicular stomatitis virus, 72 h, read-out: VSVpp (EC50, μM)
[2] = system: Pseudotyped HCV GT1a particles (HCVpp); format: cell-based, Hepatitis C virus GT1a H77 strain; conditions: Hepatitis C virus, 72 h, read-out: HCVpp GT-1a (EC50, μM)
[3] = system: Pseudotyped HCV GT1b particles (HCVpp); format: cell-based, Hepatitis C virus GT1b Con1 strain; conditions: Hepatitis C virus, 72 h, read-out: HCVpp GT-1b (EC50, μM)

Compound | EC50 [1] | EC50 [2] | EC50 [3]
N#Cc1ccc([S+]([O-])c2c(Cl)cc(Nc3n[nH]c(N)n3)cc2Cl)cc1 (stereo not shown) [Compound 13, 4-[4-(5-Amino-1H-[1,2,4]triazol-3-ylamino)-2,6-dichloro-benzenesulfinyl]-benzonitrile] | 10 µM | 0.674 µM | –
Nc1nc(Nc2cc(Cl)c(Sc3ccccc3C(F)(F)F)c(Cl)c2)n[nH]1 [Compound 10, N*3*-[3,5-Dichloro-4-(2-trifluoromethyl-phenylsulfanyl)-phenyl]-1H-[1,2,4]triazole-3,5-diamine] | 7.7 µM | 0.263 µM | –
Nc1nc(Nc2ccc(Sc3ccccc3)c(Cl)c2)n[nH]1 [Compound 22, N3-(3-chloro-4-(phenylthio)phenyl)-1H-1,2,4-triazole-3,5-diamine] | 14.3 µM | 1.65 µM | 0.229 µM
Nc1nc(Nc2cc(Cl)c(Sc3ccc(C(F)(F)F)cc3)c(Cl)c2)n[nH]1 [Compound 7, N3-(3,5-dichloro-4-(4-(trifluoromethyl)phenylthio)phenyl)-1H-1,2,4-triazole-3,5-diamine] | 100 µM | – | 0.009 µM
Nc1nc(Nc2cc(Cl)c([S+]([O-])c3ccc(C(F)(F)F)cc3)c(Cl)c2)n[nH]1 (stereo not shown) [Compound 8, N3-(3,5-dichloro-4-(4-(trifluoromethyl)phenylsulfinyl)phenyl)-1H-1,2,4-triazole-3,5-diamine] | 10 µM | 0.114 µM | 0.079 µM
Nc1n[nH]c(Nc2cc(F)c(Sc3ccccc3)c(C(F)(F)F)c2)n1 [Compound 1, N^5-(3-Fluoro-4-phenylsulfanyl-5-trifluoromethylphenyl)-1H-[1,2,4]-triazole-3,5-diamine] | 13.2 µM | 0.31 µM | –
COc1ccc(Sc2c(Cl)cc(Nc3n[nH]c(N)n3)cc2Cl)cc1 [Compound 16, N*3*-[3,5-Dichloro-4-(4-methoxy-phenylsulfanyl)-phenyl]-1H-[1,2,4]triazole-3,5-diamine] | 40.2 µM | 1.02 µM | –
Nc1nc(Nc2cc(Cl)c(Sc3ccccc3)c(Cl)c2)n[nH]1 [Compound 4, N*3*-(3,5-Dichloro-4-phenylsulfanyl-phenyl)-1H-[1,2,4]triazole-3,5-diamine] | 3.3 µM | 0.076 µM | –
Nc1nc(Nc2cc(Cl)c([S+]([O-])c3cccc(C(F)(F)F)c3)c(Cl)c2)n[nH]1 (stereo not shown) [Compound 11, N^3-[3,5-Dichloro-4-(3-trifluoromethyl-benzenesulfinyl)-phenyl]-1H-[1,2,4]triazole-3,5-diamine] | 10 µM | 0.61 µM | –
COc1ccc(Sc2c(Cl)cc(Nc3n[nH]c(N)n3)cc2C(F)(F)F)cc1 [Compound 17, N*3*-[3-Chloro-4-(4-methoxy-phenylsulfanyl)-5-trifluoromethyl-phenyl]-1H-[1,2,4]triazole-3,5-diamine] | 34.9 µM | 1.04 µM | –
N#Cc1ccc(Sc2c(Cl)cc(Nc3n[nH]c(N)n3)cc2Cl)cc1 [Compound 12, 4-[4-(5-Amino-1H-[1,2,4]triazol-3-ylamino)-2,6-dichloro-phenylsulfanyl]-benzonitrile] | 3.4 µM | 0.077 µM | –
Nc1nc(Nc2cc(Cl)c(Sc3cccc(C(F)(F)F)c3)c(Cl)c2)n[nH]1 [Compound 9, N3-(3,5-dichloro-4-(3-(trifluoromethyl)phenylthio)phenyl)-1H-1,2,4-triazole-3,5-diamine] | 3 µM | 0.15 µM | –
CS(=O)(=O)c1ccc(Oc2c(Cl)cc(Nc3n[nH]c(N)n3)cc2Cl)cc1 [Compound 19, N*3*-[3,5-Dichloro-4-(4-methanesulfonyl-phenoxy)-phenyl]-1H-[1,2,4]triazole-3,5-diamine] | 20.2 µM | 0.019 µM | 0.008 µM
Nc1nc(Nc2cc(Cl)cc(Oc3ccccc3)c2)n[nH]1 [Compound 25, N*3*-(3-Chloro-5-phenoxy-phenyl)-1H-[1,2,4]triazole-3,5-diamine] | 100 µM | – | 1.9 µM
N#Cc1ccc(S(=O)(=O)c2c(Cl)cc(Nc3n[nH]c(N)n3)cc2Cl)cc1 [Compound 14, 4-[4-(5-Amino-1H-[1,2,4]triazol-3-ylamino)-2,6-dichloro-benzenesulfonyl]-benzonitrile] | 10 µM | 0.366 µM | –
Nc1nc(Nc2ccc(Oc3ccccc3)c(Cl)c2)n[nH]1 [Compound 3, N*3*-(3-Chloro-4-phenoxy-phenyl)-1H-[1,2,4]triazole-3,5-diamine] | 35.5 µM | 2.77 µM | 0.329 µM
COC(=O)c1ccc(Sc2c(Cl)cc(Nc3n[nH]c(N)n3)cc2C(F)(F)F)cc1 [Compound 15, 4-[4-(5-Amino-1H-[1,2,4]triazol-3-ylamino)-2-chloro-6-trifluoromethyl-phenylsulfanyl]-benzoic acid methyl ester] | 49.8 µM | 0.133 µM | –
CS(=O)(=O)c1ccc(Oc2c(Cl)cc(Nc3n[nH]c(N)n3)cc2C(F)(F)F)cc1 [Compound 20, N*3*-[3-Chloro-4-(4-methanesulfonyl-phenoxy)-5-trifluoromethyl-phenyl]-1H-[1,2,4]triazole-3,5-diamine] | 10 µM | 0.232 µM | –
COc1ccc(S(=O)(=O)c2c(Cl)cc(Nc3n[nH]c(N)n3)cc2Cl)cc1 [Compound 18, N*3*-[3,5-Dichloro-4-(4-methoxy-benzenesulfonyl)-phenyl]-1H-[1,2,4]triazole-3,5-diamine] | 0.1 µM | 0.126 µM | –
CN(c1ccc(Sc2ccccc2)c(Cl)c1)c1n[nH]c(N)n1 [Compound 24, N3-(3-chloro-4-(phenylthio)phenyl)-N3-methyl-1H-1,2,4-triazole-3,5-diamine] | 100 µM | – | 42.1 µM
Nc1nc(Nc2ccc(Nc3ccccc3)c(Cl)c2)n[nH]1 [Compound 2, N*3*-(3-Chloro-4-phenylamino-phenyl)-1H-[1,2,4]triazole-3,5-diamine] | 86 µM | 2.44 µM | 0.393 µM
Nc1nc(Nc2cc(Cl)c([S+]([O-])c3ccccc3)c(Cl)c2)n[nH]1 (stereo not shown) [Compound 5, N*3*-(4-Benzenesulfinyl-3,5-dichloro-phenyl)-1H-[1,2,4]triazole-3,5-diamine] | 25.3 µM | 0.293 µM | –
Nc1nc(Nc2ccc(S(=O)(=O)c3ccccc3)c(Cl)c2)n[nH]1 [Compound 23, N3-(3-chloro-4-(phenylsulfonyl)phenyl)-1H-1,2,4-triazole-3,5-diamine] | 40.1 µM | 4.62 µM | 0.517 µM
Nc1nc(Nc2cc(Cl)cc(OCc3ccccc3)c2)n[nH]1 [Compound 21, N*5*-(3-Benzyloxy-5-chloro-phenyl)-1H-[1,2,4]triazole-3,5-diamine] | 39.2 µM | 1.67 µM | –
Nc1nc(Nc2cc(Cl)c(Oc3ccccn3)c(Cl)c2)n[nH]1 [Compound 26, N*3*-[3,5-Dichloro-4-(pyridin-2-yloxy)-phenyl]-1H-[1,2,4]triazole-3,5-diamine] | 43.5 µM | 1.88 µM | –
Nc1nc(Nc2cc(Cl)c(S(=O)(=O)c3ccccc3)c(Cl)c2)n[nH]1 [Compound 6, N*3*-(4-Benzenesulfonyl-3,5-dichloro-phenyl)-1H-[1,2,4]triazole-3,5-diamine] | 34 µM | 0.139 µM | –
